Test results taken from the supplement of paper PMC10307832.

Columns and labels:
Experiment in all cases: relative viability (nuclei count vs DMSO), 5 days (fraction); higher = more cells survive
HCC-44 = test system: HCC-44
Outline: (§1)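 Lung cancer cell lines in 1536-well plates got either a single drug or a fixed anchor-drug dose together with five library-drug doses (not always all listed) in √10 steps, by pin tool, on the day after seeding. Nuclei were counted after 5 days, and relative viability is the treated-to-vehicle ratio of nuclei counts. Values are medians of duplicate plates.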

SW 1573 = test system: SW 1573
Outline: as §1

NCI-H1650 = test system: NCI-H1650
Outline: as §1

NCI-H23 = test system: NCI-H23
Outline: as §1

NCI-H1563 = test system: NCI-H1563
Outline: as §1

H3255 = test system: H3255
Outline: as §1

NCI-H596 = test system: NCI-H596
Outline: as §1

NCI-H2347 = test system: NCI-H2347
Outline: as §1

PC-3 [JPC-3] = test system: PC-3 [JPC-3]
Outline: as §1

LK-2 = test system: LK-2
Outline: as §1

LU99A = test system: LU99A
Outline: as §1

NCI-H727 = test system: NCI-H727
Outline: as §1

A-427 = test system: A-427
Outline: as §1

COR-L23 = test system: COR-L23
Outline: as §1

LC-2-ad = test system: LC-2-ad
Outline: as §1

PC-14 = test system: PC-14
Outline: as §1

NCI-H1793 = test system: NCI-H1793
Outline: as §1

NCI-H460 = test system: NCI-H460
Outline: as §1

201T = test system: 201T
Outline: as §1

LCLC-97TM1 = test system: LCLC-97TM1
Outline: as §1

NCI-H2228 = test system: NCI-H2228
Outline: as §1

COc1nc(C)cnc1NS(=O)(=O)c1cccnc1-c1ccc(-c2nnco2)cc1 [Zibotentan] + CS(=O)(=O)CCNCc1ccc(-c2ccc3ncnc(Nc4ccc(OCc5cccc(F)c5)c(Cl)c4)c3c2)o1 [Lapatinib] (partner 2 µM)
relative viability (HCC-44; first compound 0.08 µM): 1.02 | relative viability (HCC-44; first compound 0.253 µM): 1.01 | relative viability (HCC-44; first compound 0.8 µM): 1.08 | relative viability (HCC-44; first compound 2.53 µM): 1.04 | relative viability (SW 1573; first compound 0.08 µM): 1.18 | relative viability (SW 1573; first compound 0.253 µM): 1.11 | relative viability (SW 1573; first compound 0.8 µM): 1.2 | relative viability (SW 1573; first compound 2.53 µM): 1.14 | relative viability (NCI-H1650; first compound 0.08 µM): 0.732 | relative viability (NCI-H1650; first compound 0.8 µM): 0.781 | relative viability (NCI-H1650; first compound 2.53 µM): 0.813 | relative viability (NCI-H23; first compound 0.08 µM): 1.22 | relative viability (NCI-H23; first compound 0.253 µM): 0.987 | relative viability (NCI-H23; first compound 0.8 µM): 1.19 | relative viability (NCI-H23; first compound 2.53 µM): 1.26 | relative viability (NCI-H1563; first compound 0.08 µM): 0.993 | relative viability (NCI-H1563; first compound 0.253 µM): 0.535 | relative viability (NCI-H1563; first compound 0.8 µM): 0.905 | relative viability (NCI-H1563; first compound 2.53 µM): 0.958 | relative viability (H3255; first compound 0.08 µM): 0.271 | relative viability (H3255; first compound 0.253 µM): 0.255 | relative viability (H3255; first compound 0.8 µM): 0.281 | relative viability (H3255; first compound 2.53 µM): 0.239 | relative viability (NCI-H596; first compound 0.08 µM): 1.03 | relative viability (NCI-H596; first compound 0.253 µM): 1.12 | relative viability (NCI-H596; first compound 0.8 µM): 1.08 | relative viability (NCI-H596; first compound 2.53 µM): 1.08 | relative viability (NCI-H2347; first compound 0.08 µM): 1.05 | relative viability (NCI-H2347; first compound 0.253 µM): 0.941 | relative viability (NCI-H2347; first compound 0.8 µM): 1.19 | relative viability (NCI-H2347; first compound 2.53 µM): 0.943 | relative viability (PC-3 [JPC-3]; first compound 0.08 µM): 0.444 | relative viability (PC-3 [JPC-3]; first compound 0.253 µM): 0.458 | relative viability (PC-3 [JPC-3]; first compound 0.8 µM): 0.421 | relative viability (PC-3 [JPC-3]; first compound 2.53 µM): 0.48 | relative viability (LK-2; first compound 0.08 µM): 1.02 | relative viability (LK-2; first compound 0.253 µM): 0.885 | relative viability (LK-2; first compound 0.8 µM): 0.917 | relative viability (LK-2; first compound 2.53 µM): 0.986 | relative viability (LU99A; first compound 0.08 µM): 1.02 | relative viability (LU99A; first compound 0.253 µM): 1.01 | relative viability (LU99A; first compound 0.8 µM): 1.05 | relative viability (LU99A; first compound 2.53 µM): 0.949 | relative viability (NCI-H727; first compound 0.08 µM): 0.879 | relative viability (NCI-H727; first compound 0.253 µM): 0.739 | relative viability (NCI-H727; first compound 0.8 µM): 0.781 | relative viability (NCI-H727; first compound 2.53 µM): 1.16 | relative viability (A-427; first compound 0.08 µM): 1.08 | relative viability (A-427; first compound 0.253 µM): 1.06 | relative viability (A-427; first compound 0.8 µM): 1.05 | relative viability (A-427; first compound 2.53 µM): 0.984 | relative viability (COR-L23; first compound 0.08 µM): 1.21 | relative viability (COR-L23; first compound 0.253 µM): 0.849 | relative viability (COR-L23; first compound 0.8 µM): 0.922 | relative viability (COR-L23; first compound 2.53 µM): 0.798 | relative viability (LC-2-ad; first compound 0.08 µM): 0.962 | relative viability (LC-2-ad; first compound 0.253 µM): 0.944 | relative viability (LC-2-ad; first compound 0.8 µM): 1.06 | relative viability (LC-2-ad; first compound 2.53 µM): 1.01 | relative viability (PC-14; first compound 0.08 µM): 0.322 | relative viability (PC-14; first compound 0.253 µM): 0.314 | relative viability (PC-14; first compound 0.8 µM): 0.344 | relative viability (PC-14; first compound 2.53 µM): 0.348 | relative viability (NCI-H1793; first compound 0.08 µM): 0.903 | relative viability (NCI-H1793; first compound 0.253 µM): 0.645 | relative viability (NCI-H1793; first compound 0.8 µM): 0.596 | relative viability (NCI-H1793; first compound 2.53 µM): 0.938 | relative viability (NCI-H460; first compound 0.08 µM): 1.04 | relative viability (NCI-H460; first compound 0.8 µM): 1.03 | relative viability (NCI-H460; first compound 2.53 µM): 1.12 | relative viability (201T; first compound 0.08 µM): 1.03 | relative viability (201T; first compound 0.253 µM): 0.977 | relative viability (201T; first compound 0.8 µM): 1.11 | relative viability (201T; first compound 2.53 µM): 1.02 | relative viability (LCLC-97TM1; first compound 0.08 µM): 1.01 | relative viability (LCLC-97TM1; first compound 0.253 µM): 0.95 | relative viability (LCLC-97TM1; first compound 0.8 µM): 0.841 | relative viability (LCLC-97TM1; first compound 2.53 µM): 0.93 | relative viability (NCI-H2228; first compound 0.08 µM): 1.41 | relative viability (NCI-H2228; first compound 0.253 µM): 1 | relative viability (NCI-H2228; first compound 0.8 µM): 0.989 | relative viability (NCI-H2228; first compound 2.53 µM): 1.1
